These are literature values, as cited in paper PMC11682675 (Infection and Drug Resistance, 2024).

Structures are written as SMILES. Residues, ends and D or L forms follow the SMILES beside them.

The conditions of the series: reported by some studies.

Regarding `CC[C@H](C)CCCCC(=O)N[C@@H](CCN)C(=O)N[C@H](C(=O)N[C@@H](CCN)C(=O)N[C@H]1CCNC(=O)[C@H]([C@@H](C)O)NC(=O)[C@H](CCN)NC(=O)[C@H](CCN)NC(=O)[C@H](CC(C)C)NC(=O)[C@@H](Cc2ccccc2)NC(=O)[C@H](CCN)NC1=O)[C@@H](C)O` [PMB, Polymyxin B] (HELM PEPTIDE1{[CC[C@H](C)CCCCC(=O)[*:2]].[Dab].T.[Dab].[Dab].[Dab].[dF].L.[Dab].[Dab].T}$PEPTIDE1,PEPTIDE1,5:R3-11:R2$$$V2.0), the “CL of PMB in ECMO patients” value is on record as 1.16 L/h and the “Vd of PMB in ECMO patients” value is recorded as 19.7 L.
